Reference: ChEMBL document CHEMBL1122674, “Aporphines. 58. N-(2-chloroethyl) [8,9-2H]norapomorphine, an irreversible ligand for dopamine receptors: synthesis and application” (J Med Chem, 1984)

Tests used:
[1] = target: Dopamine receptor (Homo sapiens) (UniProt P14416+P35462+P21918+P21917+P21728); assay: Compound was evaluated at 100 uM concentration to displace [3H]spiperone and result indicates the percent displacement.; format: protein assay; details: Canis lupus familiaris
Dopamine receptor = assay: Compound was evaluated for the competitive binding with [3H]spiperone binding to Canine striatal membranes.; set-up: species or system Canis lupus familiaris

For `Oc1ccc2c(c1O)-c1cccc3c1[C@@H](C2)N(CCCl)CC3`, the Displacement [1] was 70% and the IC50 app (Dopamine receptor) was 8 µM.
